From patent US11098032B2, “Pyran dervatives as CYP11A1 (cytochrome P450 monooxygenase 11A1) inhibitors” (ORION CORPORATION, priority 2016, dated 2021)
pIC50: −log10 of the molar value. Structures can show the parent of a compound that is named as a salt.

biological target: T1, CYP11A1 (Homo sapiens, UniProt P05108); assay: CYP11A1 inhibition: modified isocaproic acid release assay (IARA) in H295R cells; assay type: cell-based; conditions: human H295R adrenocortical carcinoma cells treated three days, 3 nM [24,25-3H]-labelled cholesterol, 1% DMSO, 10 concentrations in duplicates; read-out: IC50 of the test compounds on CYP11A1 inhibition
T1 construct: human H295R adrenocortical carcinoma cell line was used as source of enzyme; endogenous in cells; host or cells: H295R human adrenocortical carcinoma cells
T1 sequence (P05108 40-521): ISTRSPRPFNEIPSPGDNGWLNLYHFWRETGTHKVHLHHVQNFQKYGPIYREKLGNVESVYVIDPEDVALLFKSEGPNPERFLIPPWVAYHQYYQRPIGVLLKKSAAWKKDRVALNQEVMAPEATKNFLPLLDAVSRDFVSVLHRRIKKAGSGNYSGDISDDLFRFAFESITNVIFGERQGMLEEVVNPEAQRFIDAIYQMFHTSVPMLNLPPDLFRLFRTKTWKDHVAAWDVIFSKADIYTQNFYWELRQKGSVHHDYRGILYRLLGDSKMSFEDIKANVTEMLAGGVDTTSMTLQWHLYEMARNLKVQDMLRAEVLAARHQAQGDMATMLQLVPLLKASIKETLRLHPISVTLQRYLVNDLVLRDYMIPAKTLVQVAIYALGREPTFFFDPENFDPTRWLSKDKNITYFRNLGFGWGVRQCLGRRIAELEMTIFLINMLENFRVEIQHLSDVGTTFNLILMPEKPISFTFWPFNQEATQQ
Procedure: The ability of the test compounds to inhibit conversion of cholesterole to pregnenolone and isocaproic acid was measured by modification of isocaproic acid release assay (IARA) described by Ruangwises et. al. (Biology of Reproduction 1991; 45(1):143-50) except that human H295R adrenocortical carcinoma cell line was used as source of enzyme and extraction was done with dextran-coated charcoal suspension (Isomaa, V. et al., Endocrinology 1982; 111(3):833-843). […] To determine the half maximal inhibitory concentration (IC50) of the test compounds on CYP11A1 inhibition, the cells were treated for three days with increasing concentrations of the test compounds in the presence of 3 nM [24,25-3H]-labelled cholesterol (American Radiolabelled Chemicals). The final DMSO concentration was 1%. Cell culture medium was extracted with dextran-coated charcoal suspension and the radiolabelled isocaproic acid was determined by mixing 100 μl of supernatant fraction in 200 μl of scintillation fluid (OptiPhase SuperMix, Perkin Elmer). Radioactivity was measured using a Microbeta scintillation counter (1450 MicroBeta Trilux, Wallac). All the test compounds were studied at 10 concentrations in duplicates.

pIC50	Compound
5.70 to 6.52	O=c1cc(CN2Cc3ccccc3C2)occ1OC[C@H]1C=C[C@@H](NS(=O)(=O)C2CC2)C1 (relative stereo) [Compound 274, Cis-N-(4-(((6-(isoindolin-2-ylmethyl)-4-oxo-4H-pyran-3-yl)oxy)methyl)cyclo-pent-2-en-1-yl)cyclopropanesulfonamide, Formate]
5.70 to 6.52	CC(C)CC(=O)N[C@@H]1C=C[C@H](COc2coc(CN3Cc4ccccc4C3)cc2=O)C1 (relative stereo) [Compound 275, Cis-N-(4-(((6-(isoindolin-2-ylmethyl)-4-oxo-4H-pyran-3-yl)oxy)methyl)cyclo-pent-2-en-1-yl)-3-methylbutanamide, Formate]
6.52 to 6.82	CS(=O)(=O)N[C@@H]1CC[C@H](COc2coc(CN3Cc4ccccc4C3)cc2=O)C1 (relative stereo) [Compound 276, Cis-N-(3-(((6-(Isoindolin-2-ylmethyl)-4-oxo-4H-pyran-3-yl)oxy)methyl)-cyclo-pentyl)-methanesulfonamide]
6.52 to 6.82	CS(=O)(=O)c1ccc(COc2coc(CN3Cc4ccccc4C3)cc2=O)cc1 [Compound 1, 2-(Isoindolin-2-ylmethyl)-5-((4-(methylsulfonyl)benzyl)oxy)-4H-pyran-4-one]
> 6.82	COC(=O)/C=C/c1ccc(COc2coc(CN3Cc4ccccc4C3)cc2=O)cc1 [Compound 2, Methyl (E)-3-(4-(((6-(isoindolin-2-ylmethyl)-4-oxo-4H-pyran-3-yl)oxy)-methyl)phenyl)acrylate]
5.70 to 6.52	O=c1cc(CN2Cc3ccccc3C2)occ1OCc1ccc(SC(F)(F)F)cc1 [Compound 3, 2-(Isoindolin-2-ylmethyl)-5-((4-((trifluoromethyl)thio)benzyl)oxy)-4H-pyran-4-one]
6.52 to 6.82	CCN(CC)S(=O)(=O)c1ccc(COc2coc(CN3Cc4ccccc4C3)cc2=O)cc1 [Compound 4, N,N-Diethyl-4-(((6-(isoindolin-2-ylmethyl)-4-oxo-4H-pyran-3-yl)oxy)methyl)-benzenesulfonamide]
> 6.82	O=c1cc(CN2Cc3ccccc3C2)occ1OCc1ccc(S(=O)(=O)N2CCCC2)cc1 [Compound 5, 2-(Isoindolin-2-ylmethyl)-5-((4-(pyrrolidin-1-ylsulfonyl)benzyl)oxy)-4H-pyran-4-one]
6.52 to 6.82	O=c1cc(CN2Cc3ccccc3C2)occ1OCc1ccc(S(=O)(=O)N2CCOCC2)cc1 [Compound 6, 2-(Isoindolin-2-ylmethyl)-5-((4-(morpholinosulfonyl)benzyl)oxy)-4H-pyran-4-one]
6.52 to 6.82	O=c1cc(CN2Cc3ccccc3C2)occ1OCc1ccc(S(=O)(=O)N2CCCCC2)cc1 [Compound 7, 2-(Isoindolin-2-ylmethyl)-5-((4-(piperidin-1-ylsulfonyl)benzyl)oxy)-4H-pyran-4-one]
> 6.82	CNS(=O)(=O)c1ccc(COc2coc(CN3Cc4ccccc4C3)cc2=O)cc1 [Compound 8, 4-(((6-(Isoindolin-2-ylmethyl)-4-oxo-4H-pyran-3-yl)oxy)methyl)-N-methylbenzenesulfonamide]
6.52 to 6.82	O=c1cc(CN2Cc3ccccc3C2)occ1OCc1ccc(S(=O)(=O)N2CCC2)cc1 [Compound 9, 5-((4-(Azetidin-1-ylsulfonyl)benzyl)oxy)-2-(isoindolin-2-ylmethyl)-4H-pyran-4-one]
> 6.82	CN(C)S(=O)(=O)c1ccc(COc2coc(CN3Cc4ccccc4C3)cc2=O)cc1 [Compound 10, 4-(((6-(Isoindolin-2-ylmethyl)-4-oxo-4H-pyran-3-yl)oxy)methyl)-N,N-di-methylbenzenesulfonamide]
> 6.82	COCCNS(=O)(=O)c1ccc(COc2coc(CN3Cc4ccccc4C3)cc2=O)cc1 [Compound 11, 4-(((6-(Isoindolin-2-ylmethyl)-4-oxo-4H-pyran-3-yl)oxy)methyl)-N-(2-methoxyethyl)benzenesulfonamide]
> 6.82	CN(CCO)S(=O)(=O)c1ccc(COc2coc(CN3Cc4ccccc4C3)cc2=O)cc1 [Compound 12, N-(2-Hydroxyethyl)-4-(((6-(isoindolin-2-ylmethyl)-4-oxo-4H-pyran-3-yl)-oxy)methyl)-N-methylbenzenesulfonamide]
5.70 to 6.52	NS(=O)(=O)c1ccc(COc2coc(CN3Cc4ccccc4C3)cc2=O)cc1 [Compound 13, 4-(((6-(Isoindolin-2-ylmethyl)-4-oxo-4H-pyran-3-yl)oxy)methyl)benzenesulfonamide]
5.70 to 6.52	CS(=O)(=O)c1ccc(COc2coc(CN3CCc4ccccc4C3)cc2=O)cc1 [Compound 14, 2-((3,4-Dihydroisoquinolin-2(1H)-yl)methyl)-5-((4-(methylsulfonyl)benzyl)oxy)-4H-pyran-4-one]
> 6.82	O=c1cc(CN2Cc3ccccc3C2)occ1OCc1ccc(S(=O)(=O)NCCO)cc1 [Compound 15, N-(2-Hydroxyethyl)-4-(((6-(isoindolin-2-ylmethyl)-4-oxo-4H-pyran-3-yl)-oxy)methyl)benzenesulfonamide]
5.70 to 6.52	CS(=O)(=O)c1ccc(COc2coc(CN3Cc4ccccc4C3)cc2=O)c(Cl)c1 [Compound 16, 5-((2-Chloro-4-(methylsulfonyl)benzyl)oxy)-2-(isoindolin-2-ylmethyl)-4H-pyran-4-one]
5.70 to 6.52	CS(=O)(=O)c1ccc(COc2coc(CN3Cc4ccccc4C3)cc2=O)cc1F [Compound 17, 5-((3-Fluoro-4-(methylsulfonyl)benzyl)oxy)-2-(isoindolin-2-ylmethyl)-4H-pyran-4-one]
5.70 to 6.52	CS(=O)(=O)c1ccc(COc2coc(CN3CCc4ccccc4C3)cc2=O)c(Cl)c1 [Compound 18, 5-((2-Chloro-4-(methylsulfonyl)benzyl)oxy)-2-((3,4-dihydroisoquinolin-2(1H)-yl)methyl)-4H-pyran-4-one]
5.70 to 6.52	CS(=O)(=O)c1ccc(COc2coc(CN3Cc4ccccc4C3)cc2=O)c(C(F)(F)F)c1 [Compound 19, 2-(Isoindolin-2-ylmethyl)-5-((4-(methylsulfonyl)-2-(trifluoromethyl)benzyl)oxy)-4H-pyran-4-one]
6.52 to 6.82	COCCN(C)S(=O)(=O)c1ccc(COc2coc(CN3Cc4ccccc4C3)cc2=O)cc1 [Compound 20, 4-(((6-(Isoindolin-2-ylmethyl)-4-oxo-4H-pyran-3-yl)oxy)methyl)-N-(2-methoxyethyl)-N-methylbenzenesulfonamide]
> 6.82	CCN(CCO)S(=O)(=O)c1ccc(COc2coc(CN3Cc4ccccc4C3)cc2=O)cc1 [Compound 21, N-Ethyl-N-(2-hydroxyethyl)-4-(((6-(isoindolin-2-ylmethyl)-4-oxo-4H-pyran-3-yl)oxy)methyl)benzenesulfonamide]
> 6.82	O=c1cc(CN2Cc3ccccc3C2)occ1OCc1ccc(S(=O)(=O)C(F)F)cc1 [Compound 22, 5-((4-((Difluoromethyl)sulfonyl)benzyl)oxy)-2-(isoindolin-2-ylmethyl)-4H-pyran-4-one]
> 6.82	CN(CCC#N)S(=O)(=O)c1ccc(COc2coc(CN3Cc4ccccc4C3)cc2=O)cc1 [Compound 23, N-(2-Cyanoethyl)-4-(((6-(isoindolin-2-ylmethyl)-4-oxo-4H-pyran-3-yl)oxy)-methyl)-N-methylbenzenesulfonamide]
6.52 to 6.82	CCS(=O)(=O)c1ccc(COc2coc(CN3Cc4ccccc4C3)cc2=O)cc1 [Compound 24, 5-((4-(Ethylsulfonyl)benzyl)oxy)-2-(isoindolin-2-ylmethyl)-4H-pyran-4-one]
